Read-outs that look alike come from different tables or passages of the source.
Assays:
[1] = system: sodium-potassium-2 chloride transport mechanism in the ascending limb of the loop of Henle; conditions: cited from earlier work
[2] = in vivo; cited from earlier work
[3] = male versus female Wistar rats; P-450 oxidation products; cited from earlier work
Heat of solution = type: physicochemical; conditions: in I-butanol at 20° C.
Procedure: Relevant data of the two most important crystal forms (modification I and III) of torasemide are summarized in Table 1. | Heat of solution (kJ mol^-1) in I-butanol at 20° C. 36.1

Diuretic effect = conditions: in vivo
True density = type: physicochemical
Procedure: One aspect of the present invention involves pure torasemide of modification III. It is believed that pure torasemide of modification III was previously unknown to the art. Torasemide of modification III can be characterized by a melting point of 155 to 158° C. (thermomicroscopy) and a true density of 1.302±0.009 g cm^-3 (versus 1.363±0.001 g cm^3 for modification I). In a preferred embodiment, the torasemide of modification III is pure. This term "pure" means that the torasemide contains less than about 1% of modification I and/or II, and less in any event than amounts of modification I which adversely effect the stability of modification III.
True density (g cm^-3) ± 95% - c.i.

[4] = Storage stability of the crystal modification; type: physicochemical; conditions: storage stable: tablet form, ambient conditions, less than 5% changing into another crystalline form over six months
[5] = Heat of fusion / heat of transition (DSC); type: physicochemical; conditions: for Heat of fusion ± 95% - C.B.: heating rate 5K min^-1
[6] = Water content after storing in relative humidity of 92% at 25° C.; type: physicochemical; conditions: 92% relative humidity, Mod. III depending on particle size
Procedure: Relevant data of the two most important crystal forms (modification I and III) of torasemide are summarized in Table 1. | Water content (%) after storing in relative 0.2 1.2 (depending | humidity of 92% at 25° C. on particle size

[7] = Serum concentration of torasemide in rats after oral administration; type: in vivo, Wistar rat; conditions: male rats (FIG. 1); for Serum concentration compared with modification I: oral 3 mg per kilogram
Procedure: FIG. 1 is a plot of serum concentration levels in male rats of torasemide of modification I and modification III versus time after oral administration; and FIG. 2 is similar to FIG. 1, but reflects the serum concentrations in female rats. […] Therefore, both genders were tested to determine the concentration of torasemide in serum against the time after administration. The dose of torasemide was 3 mg per kilogram, administered orally. FIG. 1 is a graph illustrating the concentration in the serum of male rats of torasemide, as a result of administering modification I and modification III. FIG. 2 is a representation of the concentration of torasemide versus time after administration for the serum of female rats, treated the same as the male rats of FIG. 1.

[8] = prior art (U.S. Re 34,672 and 34,580); listed as modification I; cited from earlier work
[9] = literature (Acta Cryst. 1978), cited from earlier work

Cc1cccc(Nc2ccncc2S(=O)(=O)NC(=O)NC(C)C)c1 [Torasemide, 1-isopropyl-3-[(4-m-toluidino-3pyridyl)sulphonyl)urea]
Mechanism of action [1]: blocks the sodium-potassium-2 chloride transport mechanism in the ascending limb of the loop of Henle | Diuresis profile compared with other standard loop diuretics [2]: less intense initial diuresis and a sustained duration of action | Difference between male and female rats in excretion rate and metabolism [3]: significant differences

Cc1cccc(Nc2ccncc2S(=O)(=O)NC(=O)NC(C)C)c1 [Modification III]
Heat of solution (Heat of solution; listed as Mod. III): 29.8 kJ/mol | Diuretic effect (Diuretic effect): effective diuretic | True density ± 95% - c.i. (True density; listed as Mod. III): 1.302 ± 0.009 g cm^-3 | True density ± 95% - c.i. (True density; listed as modification III): 1.302±0.009 g cm^-3 | Stability of the crystal modification [4]: storage stable | Heat of transition ± 95% - C.B. ([5]; at about 159° C., the difference of the heats of fusion, ± 2.1 printed on next line): -82 kJ/mol | Heat of fusion ± 95% - C.B. ([5]; listed as Mod. III): 29.9 ± 0.9 kJ/mol | Water content after storing in relative humidity of 92% at 25° C. ([6]; listed as Mod. III): 1.2% | Serum concentration compared with modification I ([7]; 20 minutes after administration): more than twice the serum concentration as modification I | Serum concentration compared with modification I ([7]; 40 minutes after administration): almost twice the serum concentration as modification I | Appearance in the serum after oral administration ([7]; oral): rapid appearance

Cc1cccc(Nc2ccncc2S(=O)(=O)NC(=O)NC(C)C)c1 [Modification I]
Stability / rearrangement in tablets or on storage [8]: stable in tablets and did not rearrange again back into modification II | Heat of solution (Heat of solution): 36.1 kJ/mol | True density ± 95% - c.i. (True density; listed as Mod. I): 1.363 ± 0.001 g cm^-3 | Heat of fusion ± 95% - C.B. [5]: 37.2 ± 1.9 kJ/mol | Water content after storing in relative humidity of 92% at 25° C. ([6]; listed as Mod. I): 0.2% | True density [9]: about 1.36

Cc1cccc(Nc2ccncc2S(=O)(=O)NC(=O)NC(C)C)c1 [Modification II]
True density ([9]; in g/cm3 (unit assumed)): 1.285

Source: patent publication US6166045A, “Torasemide of modification III” (Roche Diagnostics GmbH, priority 1998, dated 2000)
